In data set [1] the test system is mouse model of heart attack (myocardial ischemia and reperfusion). The data set is described as follows: Infarct size by morphometry (TTC and Evans blue) after LAD ligation and 2 hours of reperfusion. The format is in vivo, mice. The method, then:
(§1) For the myocardial infarction model, open chest ligation of the left descending coronary artery (LAD ligation) was performed in mice. At 55 minutes post initiation of ischemia, either vehicle or test agent was injected into the femoral vein of each mouse. The heart muscle was reperfused by releasing the ligature at 60 minutes post initiation of ischemia. Mice were then sacrificed at either 2 hours or 2 days post reperfusion for infarct size measurement and blood analysis or heart function assays, respectively, as described below.
In order to examine the effect of NaHSe on myocardial infarct size, mice were subjected to LAD ligation, and after 2 hours of reperfusion, infarct size was measured by morphometry (FIG. 1). Six groups of mice were utilized in this study, including a saline vehicle group and five test groups that received 50, 200, 800, 1600 and 2400 μg/kg of NaHSe. To be certain that all animals in the study were treated in a similar way, the area at risk (AAR) as a proportion of the left ventricle was determined (FIG. 1, left panel).
Area at risk and infarct size (Inf) were measured using the specific dyes TTC and Evans blue. Processed images were generated in an unbiased way by setting constant thresholds and allowing Photoshop® to generate the images that were quantitated to generate FIG. 1.

Data set [2] concerns cardiac troponin I. The data set is described as follows: Plasma cardiac troponin I by ELISA after LAD ligation and 2 hour reperfusion. The format is in vivo, mice. Particulars: end of 2 hour reperfusion. The method, then:
as §1
To provide an independent means of testing for improvement, the level of a heart specific protein, cardiac troponin I, was assessed in the blood of the animals after the 2 hour reperfusion period. Five minutes prior to reperfusion, three groups of mice were given 200 μg/kg NaHSe, 50 μg/kg NaHSe, or saline by I.V. injection through the femoral vein. At the end of the 2 hour reperfusion, blood was collected and plasma cardiac troponin I was measured by ELISA.
A general note: ELISA stands for enzyme-linked immunosorbent assay.

The test system of data set [3] is mouse model of heart attack (heart function). Description: Echocardiography 2 days post the heart attack procedure. The format is in vivo, mice. Particulars: 800 μg/kg; 48 hours of reperfusion after 60 min LAD ligation; vs saline. The method, then:
as §1
To further test the hypothesis that NaHSe improves outcome following myocardial infarction, mice were survived for 2 days post the heart attack procedure and then subjected to echocardiography.

The test system of data set [4] is neutrophils in the myocardium. Description: Neutrophil count in heart sections following the heart attack procedure. The format is in vivo, mice. The conditions noted are these: vs saline treated animals. The method, then:
as §1
In order to determine whether NaHSe decreased inflammation in the hearts of animals following the heart attack procedure, neutrophils were counted in sections of hearts of saline and NaHSe treated animals.

Data set [5] concerns glutathione peroxidase 2 (GPX-2). Description: Antibody staining of heart sections for glutathione peroxidase 2. The format is in vivo, mice. Particulars: 800 μg/kg; compared to saline and sham (no heart attack) animals. How it is done: as §1
Therefore, the hypothesis that the therapeutic value of sodium selenide is its accumulation in cardiomycytes during reperfusion for the synthesis of selenoproteins, such as glutathione peroxidase, was tested. Heart sections from animals that were saline treated or NaHSe (800 μg/kg) treated were stained with an antibody specific for the selenoprotein glutathione peroxidase 2 (GPX-2).

Data set [6] is described as follows: Oxidation of selenide solutions in water or glutathione, observed visually. The class given is physicochemical. The conditions noted are these: 50 mM selenide in 150 mM GSH vs in water; 8 minutes immediately following preparation.

In the case of `[SeH2]` [NaHSe], the “benefit relative to infarct size vs saline” value in data set [1] (800 μg/kg (0.8 mg/kg) at reperfusion, selenide vs selenite comparison (FIG. 6)) is given as “provided benefit”. Moreover, the “reduction in infarct size in comparison to vehicle alone” value in data set [1] (800 μg/kg I.V. femoral vein 5 min prior to reperfusion, 60 min LAD ligation, 2 hours reperfusion) amounted to 88%. The “infarct size vs saline group” value in data set [1] (50, 200, 800, 1600 and 2400 μg/kg I.V. 5 min prior to reperfusion, 2 hours reperfusion) is listed as “statistically significant dose dependent decreases”. In addition, the “plasma cardiac troponin I compared to saline control” value in data set [2] (50 μg/kg I.V. 5 min prior to reperfusion) and in data set [2] (200 μg/kg I.V. 5 min prior to reperfusion) was “statistically significant decrease” each time. In addition, in data set [3], the fractional shortening entry was “statistically significant improvement”. For the same compound, in data set [3], the “left ventricular ejection fraction” value is given as “statistically significant improvement”. For the same compound, the “accumulation of neutrophils in the myocardium” value in data set [4] was “significantly reduced”. Moreover, the “GPX-2 antibody staining of heart sections” value in data set [5] was “striking increase”. Also, in data set [6], the “oxidation of selenide (dark oxidized forms in solution)” value was “reduced levels of oxidation”.
